Assay results taken from ChEMBL document CHEMBL4038347, “Converting Teixobactin into a Cationic Antimicrobial Peptide (AMP)” (2017).
In brackets after ≈: the same amount, converted by molar mass. Activity calls are given as the source filed them. The calls are words filed in the database; no cut-off is given here. Where a SMILES comes first, the peptide text is derived from it. Bridges are numbered along the chain shown (N, C = ends). [ ]: non-standard residue; d: D form. d(aIle) = CC[C@H](C)[C@@H](N)C(=O)O; dNMeF = CN[C@H](Cc1ccccc1)C(=O)O; Orn = NCCC[C@H](N)C(=O)O

Assays:
Assay type in all cases: functional
Bacillus subtilis = test: Antibacterial activity against Bacillus subtilis ATCC 6051 after 24 hrs by broth microdilution method
Escherichia coli = test: Antibacterial activity against Escherichia coli ATCC 25922 after 24 hrs by broth microdilution method
Staphylococcus aureus = test: Antibacterial activity against Staphylococcus aureus ATCC 29213 after 24 hrs by broth microdilution method
Pseudomonas aeruginosa = test: Antibacterial activity against Pseudomonas aeruginosa ATCC 27853 after 24 hrs by broth microdilution method

| MIC (Bacillus subtilis; ATCC 6051, 24 h) [µg/mL] | MIC (Escherichia coli; ATCC 25922, 24 h) [µg/mL] | MIC (Staphylococcus aureus; ATCC 29213, 24 h) [µg/mL] | MIC (Pseudomonas aeruginosa; ATCC 27853, 24 h) [µg/mL] | MIC (Bacillus subtilis) | MIC (Escherichia coli) | MIC (Staphylococcus aureus) | MIC (Pseudomonas aeruginosa) | SMILES |
| --- | --- | --- | --- | --- | --- | --- | --- | --- |
| 2 (≈ 1.66 µM) | 64 (≈ 53.2 µM) | 2 (≈ 1.66 µM) | 256 (≈ 213 µM) | – | – | – | – | CC[C@H](C)[C@H](NC(=O)[C@@H](Cc1ccccc1)NC)C(=O)N[C@@H](CO)C(=O)N[C@H](CCCCN)C(=O)N[C@@H](C(=O)N[C@H](C(=O)N[C@@H](CO)C(=O)N[C@H]1C(=O)N[C@@H](C)C(=O)N[C@@H](CCCN)C(=O)N[C@@H]([C@@H](C)CC)C(=O)O[C@H]1C)[C@@H](C)CC)[C@@H](C)CC |
| 16 (≈ 12.5 µM) | 32 (≈ 24.9 µM) | 256 (≈ 199 µM) | 64 (≈ 49.8 µM) | – | – | – | – | CC[C@H](C)[C@H](NC(=O)[C@@H](Cc1ccccc1)NC)C(=O)N[C@@H](CCCCN)C(=O)N[C@H](CCCCN)C(=O)N[C@@H](C(=O)N[C@H](C(=O)N[C@@H](CCCCN)C(=O)N[C@H]1C(=O)N[C@@H](C)C(=O)N[C@@H](CCCN)C(=O)N[C@@H]([C@@H](C)CC)C(=O)O[C@H]1C)[C@@H](C)CC)[C@@H](C)CC (H-[dNMeF]IK[dK][d(aIle)]IK[dT]A[Orn]I; ester 8-C) |
| 8 (≈ 5.9 µM) | 128 (≈ 94.4 µM) | 256 (≈ 189 µM) | 256 (≈ 189 µM) | – | – | – | – | CC[C@H](C)[C@H](NC(=O)[C@@H](Cc1ccccc1)NC)C(=O)N[C@@H](CCCCN)C(=O)N[C@H](CCC(N)=O)C(=O)N[C@@H](C(=O)N[C@H](C(=O)N[C@@H](CCCCN)C(=O)N[C@H]1C(=O)N[C@@H](CCCCN)C(=O)N[C@@H](CCCCN)C(=O)N[C@@H]([C@@H](C)CC)C(=O)O[C@H]1C)[C@@H](C)CC)[C@@H](C)CC |
| – | – | – | – | inactive | inactive | inactive | inactive | CC[C@H](C)[C@H](NC(=O)[C@@H](CCCCN)NC)C(=O)N[C@@H](CO)C(=O)N[C@H](CCC(N)=O)C(=O)N[C@@H](C(=O)N[C@H](C(=O)N[C@@H](CO)C(=O)N[C@H]1C(=O)N[C@@H](C)C(=O)N[C@@H](CCCNC(=N)N)C(=O)N[C@@H]([C@@H](C)CC)C(=O)O[C@H]1C)[C@@H](C)CC)[C@@H](C)CC |
| 16 (≈ 12.9 µM) | 512 (≈ 412 µM) | 128 (≈ 103 µM) | 512 (≈ 412 µM) | – | – | – | – | CC[C@H](C)[C@H](NC(=O)[C@@H](Cc1ccccc1)NC)C(=O)N[C@@H](CO)C(=O)N[C@H](CCC(N)=O)C(=O)N[C@@H](C(=O)N[C@H](C(=O)N[C@@H](CCCCN)C(=O)N[C@H]1C(=O)N[C@@H](C)C(=O)N[C@@H](CCCN)C(=O)N[C@@H]([C@@H](C)CC)C(=O)O[C@H]1C)[C@@H](C)CC)[C@@H](C)CC |
| 16 (≈ 12.9 µM) | 128 (≈ 103 µM) | – | 128 (≈ 103 µM) | – | – | inactive | – | CC[C@H](C)[C@H](NC(=O)[C@@H](Cc1ccccc1)NC)C(=O)N[C@@H](CO)C(=O)N[C@H](CCCCN)C(=O)N[C@@H](C(=O)N[C@H](C(=O)N[C@@H](CCCCN)C(=O)N[C@H]1C(=O)N[C@@H](C)C(=O)N[C@@H](CCCN)C(=O)N[C@@H]([C@@H](C)CC)C(=O)O[C@H]1C)[C@@H](C)CC)[C@@H](C)CC |
| 32 (≈ 24.9 µM) | – | – | – | – | inactive | inactive | inactive | CC[C@H](C)[C@H](NC(=O)[C@@H](Cc1ccccc1)NC)C(=O)N[C@@H](CCCCN)C(=O)N[C@H](CCC(N)=O)C(=O)N[C@@H](C(=O)N[C@H](C(=O)N[C@@H](CCCCN)C(=O)N[C@H]1C(=O)N[C@@H](C)C(=O)N[C@@H](CCCN)C(=O)N[C@@H]([C@@H](C)CC)C(=O)O[C@H]1C)[C@@H](C)CC)[C@@H](C)CC (stereo in doubt) |
| – | – | – | – | inactive | inactive | inactive | inactive | CC[C@H](C)[C@H](NC(=O)[C@@H](Cc1ccccc1)NC)C(=O)N[C@@H](CO)C(=O)N[C@H](CCC(N)=O)C(=O)N[C@@H](C(=O)N[C@H](C(=O)N[C@@H](CO)C(=O)N[C@H]1C(=O)N[C@@H](C)C(=O)N2C[C@@H](N)C[C@H]2C(=O)N[C@@H]([C@@H](C)CC)C(=O)O[C@H]1C)[C@@H](C)CC)[C@@H](C)CC |
| 1 (≈ 0.785 µM) | 32 (≈ 25.1 µM) | 4 (≈ 3.14 µM) | 64 (≈ 50.3 µM) | – | – | – | – | CC[C@H](C)[C@H](NC(=O)[C@@H](Cc1ccccc1)NC)C(=O)N[C@@H](CO)C(=O)N[C@H](CCCCN)C(=O)N[C@@H](C(=O)N[C@H](C(=O)N[C@@H](CO)C(=O)N[C@H]1C(=O)N[C@@H](CCCCN)C(=O)N[C@@H](CCCCN)C(=O)N[C@@H]([C@@H](C)CC)C(=O)O[C@H]1C)[C@@H](C)CC)[C@@H](C)CC (H-[dNMeF]IS[dK][d(aIle)]IS[dT]KKI; ester 8-C) |
| 8 (≈ 6.09 µM) | 128 (≈ 97.4 µM) | 128 (≈ 97.4 µM) | 256 (≈ 195 µM) | – | – | – | – | CC[C@H](C)[C@H](NC(=O)[C@@H](Cc1ccccc1)NC)C(=O)N[C@@H](CO)C(=O)N[C@H](CCC(N)=O)C(=O)N[C@@H](C(=O)N[C@H](C(=O)N[C@@H](CCCCN)C(=O)N[C@H]1C(=O)N[C@@H](CCCCN)C(=O)N[C@@H](CCCCN)C(=O)N[C@@H]([C@@H](C)CC)C(=O)O[C@H]1C)[C@@H](C)CC)[C@@H](C)CC |

| SMILES | MIC (Bacillus subtilis; ATCC 6051, 24 h) [µg/mL] | MIC (Escherichia coli; ATCC 25922, 24 h) [µg/mL] | MIC (Staphylococcus aureus; ATCC 29213, 24 h) [µg/mL] | MIC (Pseudomonas aeruginosa; ATCC 27853, 24 h) [µg/mL] | MIC (Bacillus subtilis) | MIC (Escherichia coli) | MIC (Staphylococcus aureus) | MIC (Pseudomonas aeruginosa) |
| --- | --- | --- | --- | --- | --- | --- | --- | --- |
| CC[C@H](C)[C@H](NC(=O)[C@@H](Cc1ccccc1)NC)C(=O)N[C@@H](CO)C(=O)N[C@H](CCC(N)=O)C(=O)N[C@@H](C(=O)N[C@H](C(=O)N[C@@H](CO)C(=O)N[C@H]1C(=O)N[C@@H](C)C(=O)N[C@@H](CCCN)C(=O)N[C@@H]([C@@H](C)CC)C(=O)O[C@H]1C)[C@@H](C)CC)[C@@H](C)CC | 0.25 (≈ 0.208 µM) | 32 (≈ 26.6 µM) | 2 (≈ 1.66 µM) | 256 (≈ 213 µM) | – | – | – | – |
